# Experimental data taken from patent publication US20170066797A1, “WITHAFERIN A ANALOGS AND USES THEREOF” (Whitehead Institute for Biomedical Research, priority 2008, published 2017).
# Experiments:
# [1] = system: minimal heat shock response element derived from the promoter region of the Hsp70B gene; assay: Heat shock reporter (EGFP) induction; type: cell-based; conditions: overnight exposure, FIG. 8
# Experimental: FIG. 8. Heat shock reporter induction measured by micro plate fluorimeter. Reporter cells stably transduced with a plasmid encoding enhanced green fluorescent protein (EGFP) under the control of a minimal heat shock response element were exposed to 2,3-dihydrowithaferin A-3β-O-sulfate (WA-SO4) or withaferin A (WA) at the indicated concentrations overnight. Relative fluorescence units (RFU) per well were determined as a measure of reporter activation. Each point represents the mean of nine determinations from three independent experiments.
# Immortalized mouse embryo fibroblasts derived from homozygous Hsf1 knockout mice or their wild type littermates were exposed overnight to equitoxic concentrations of 1 or the known heat shock-inducing Hsp90 inhibitor gendanamycin. Whole cell lysates were prepared in non-ionic detergent buffer and immunoblotted for relative levels of Hsp72, a highly inducible member of the Hsp70 family of molecular chaperones, using monoclonal antibody C92F3A-5 (StressMarq Biosciences, Victoria, BC). Reactivity was detected using peroxidase-conjugated secondary antibody and chemiluminescent detection. To evaluate the relative ability of compounds to induce a heat shock response at the transcriptional level, a reporter cell line was used as previously described (Turbyville, et al., J. Nat. Prod. (2006) 69: 178-184, incorporated herein by reference). […]
# Hsp72, Hsp27 = assay: Heat-shock protein induction in organs after IP administration; type: in vivo, mice; conditions: IP 18 mg/kg/day, 16 hours after last injection, FIG. 10
# Experimental: FIG. 10. Heat-shock protein induction following Withaferin A (WA) administration to mice. WA was formulated in DMSO/Cremophor/Saline vehicle and injected intraperitoneally (IP) at a total dose of 18 mg/kg/day, either as a single injection (WA ×1) or divided in two 9 mg/kg injections (WA ×2) spaced 6 hrs apart. Control animals received an equal volume of vehicle alone as a single injection. Mice were sacrificed 16 hours after the last injection, organs harvested and protein lysates prepared for immunoblotting. Equal loading of samples was confirmed by staining membranes for total protein (left panels). The relative tissue levels of Hsp72, Hsp27 and Annexin 2 (a putative target of Withaferin A) were determined by probing with specific antibodies as indicated. Note the robust induction of heat shock protein levels in spleen (Annexin 2 positive), but not normal brain (Annexin 2 negative) associated with prior Withaferin A exposure.
# [2] = system: Ewing's sarcoma cells (CHP-100); conditions: 72 hours, MTT, FIG. 5
# Source text: Relative viable cell number was quantified by MTT assay. Results are presented as a percentage compared to wells exposed to DMSO alone. […] Points: mean of triplicate determinations; Error bars: s.d.
compound,measurement,setting,value
CC1=C(CO)C(=O)OC([C@@H](C)C2CCC3C4C[C@H]5O[C@]56[C@@H](O)C=CC(=O)[C@]6(C)C4CC[C@@]32C)C1 (stereo partly shown) [Withaferin A],heat shock reporter induction,[1],response can be induced at compound exposures compatible with cell survival
same,heat shock response induction in brain,"Hsp72, Hsp27; annexin II absent",not in brain cells
same,heat shock response induction in spleen,"Hsp72, Hsp27; annexin II present",induces the heat shock response in spleen cells
same,"inhibition of tumor cell growth in vitro, CHP-100",[2],inhibit tumor growth in Ewing's sarcoma
